Reference: PMC3880798 (Clinical cancer research : an official journal of the …, 2013)
“And” between values parts separate entries of the source, which are not always exact repeats. Equal values may be shown once.

Key:
[1] = in vivo
c-Kit = settings: intact cellular systems; cited from earlier work
[2] = test system: pelvic or hepatic lesions; assay: DCE-MRI functional imaging; type: in vivo, human
advanced solid tumors = assay: Antitumor response; type: in vivo, human
[3] = Phase I dose escalation: safety, tolerability, DLT and MTD
[4] = 19 evaluable patients with GIST
[5] = ovarian cancer patient, 400 mg twice a day
[6] = second ovarian cancer patient, 500 mg twice a day

With `O=C(Nc1ccc(OC(F)(F)F)cc1)c1sccc1NCc1ccnc2ccccc12` [OSI-930] the “Patients with anorexia (reported adverse events)” value ([1]; human) was 6, the “Patients with at least 1 grade 3 adverse event of any cause” value ([1]; human) was 50% and the “Patients with fatigue (reported adverse events)” value ([1]; human) was 8. The “Patients with grade 1 to 2 drug-related fatigue” value ([1]; human) was 3 patients, the “Patients with grade 1 to 2 drug-related nausea and anorexia” value ([1]; human) was 2 patients and the “Patients with grade 3 PPE” value ([1]; human) was 1 patient. The “Patients with nausea (reported adverse events)” value ([1]; human) was 5, the “Patients with treatment discontinued for toxicity” value ([1]; human) was 1 patient and the “Treatment-related adverse events greater than grade 2” value ([1]; human) was “no treatment-related adverse events greater than grade 2”. The Treatment-related fatigue ([1]; human) was 50%, the “Treatment-related grade 3 fatigue” value ([1]; human) was 6% and the “Treatment-related grade 3 hypertension” value ([1]; human) was 6%. The “Treatment-related grade 3 nausea” value ([1]; human) was 6%, the “Treatment-related grade 3 skin toxicity” value ([1]; human) was 6% and the “Patients with grade 1 to 2 drug-related skin and subcutaneous disorders” value ([1]; human, sc) was 3 patients. For the same molecule, the Reports of mucositis [1] was “no reports of mucositis”, the “Potency for wild-type versus mutant c-Kit” value (c-Kit) was “equal potencies” and the “Decreases of IAUC and AUC from baseline values” ([2]; 4 responding patients, 500 mg twice a day) was −4% to −78%. For the same molecule, the “Decrease in Ktrans and Ve” value ([2]; day 22, 4 of 6 patients with non-GIST tumors) was > 40%, the “Duration of disease stabilization” value (advanced solid tumors; 1 patient, anthracycline-resistant low-grade sarcoma, once a day) was 139 weeks and the “Duration of RECIST stabilization of disease” value (advanced solid tumors; 1 patient, low-grade sarcoma, escalated from 100 to 1,200 mg once a day) was 33 months. The “Patients with stable disease as best response” value (advanced solid tumors; [4]) was 57.9% and 58%, the “RECIST PRs” value (advanced solid tumors; [4]) was “no RECIST PRs” and the “RECIST partial or complete responses” value (advanced solid tumors; once a day cohorts) was “No RECIST partial or complete responses”. For the same molecule, the “Patients with stable disease as best response” value (advanced solid tumors; once a day cohorts, 50 to 1,600 mg) was 4 of 12, the “Time of confirmed RECIST PR” value (advanced solid tumors; [5]) was 24 weeks and the “Time of disease progression” value (advanced solid tumors; [5]) was 65 weeks. For the same molecule, the “Time to GCIG CA125 response” value (advanced solid tumors; [5]) was 15 weeks, the “Median duration of stable disease” value (advanced solid tumors; patients with GIST) was 126 days and the “Further duration of GCIG CA125 response” value (advanced solid tumors; [6]) was 12 weeks. For the same molecule, the “Time to GCIG CA125 response” value (advanced solid tumors; [6]) was 12 weeks, the “Patients who achieved stable disease” value (advanced solid tumors; twice a day cohort) was 48% and the “Treatment-related AEs (number): Abdominal pain, G1–2” value ([3]; 1,600 mg once a day (n = 3)) was 1. For the same molecule, the “Treatment-related AEs (number): Abdominal pain, G3” value ([3]; 1,600 mg once a day (n = 3)) was 0, the “Treatment-related AEs (number): Anorexia, G1–2” value ([3]; 1,600 mg once a day (n = 3)) was 2 and the “Treatment-related AEs (number): Anorexia, G3” value ([3]; 1,600 mg once a day (n = 3)) was 0. For the same molecule, the “Treatment-related AEs (number): Diarrhea, G1–2” value ([3]; 1,600 mg once a day (n = 3)) was 0, the “Treatment-related AEs (number): Diarrhea, G3” value ([3]; 1,600 mg once a day (n = 3)) was 0 and the “Treatment-related AEs (number): Dry skin, G1–2” value ([3]; 1,600 mg once a day (n = 3)) was 0. The “Treatment-related AEs (number): Dry skin, G3” value ([3]; 1,600 mg once a day (n = 3)) was 0, the “Treatment-related AEs (number): Dyspepsia, G1–2” value ([3]; 1,600 mg once a day (n = 3)) was 0 and the “Treatment-related AEs (number): Dyspepsia, G3” value ([3]; 1,600 mg once a day (n = 3)) was 0. For the same molecule, the “Treatment-related AEs (number): Fatigue, G1–2” value ([3]; 1,600 mg once a day (n = 3)) was 1, the “Treatment-related AEs (number): Fatigue, G3” value ([3]; 1,600 mg once a day (n = 3)) was 0 and the “Treatment-related AEs (number): Flatulence, G1–2” value ([3]; 1,600 mg once a day (n = 3)) was 0. The “Treatment-related AEs (number): Flatulence, G3” value ([3]; 1,600 mg once a day (n = 3)) was 0, the “Treatment-related AEs (number): Hair color changes, G1–2” value ([3]; 1,600 mg once a day (n = 3)) was 0 and the “Treatment-related AEs (number): Hair color changes, G3” value ([3]; 1,600 mg once a day (n = 3)) was 0. The “Treatment-related AEs (number): Headache, G1–2” value ([3]; 1,600 mg once a day (n = 3)) was 0, the “Treatment-related AEs (number): Headache, G3” value ([3]; 1,600 mg once a day (n = 3)) was 0 and the “Treatment-related AEs (number): Hypertension, G1–2” value ([3]; 1,600 mg once a day (n = 3)) was 0. The “Treatment-related AEs (number): Hypertension, G3” value ([3]; 1,600 mg once a day (n = 3)) was 0, the “Treatment-related AEs (number): Muscle spasms, G1–2” value ([3]; 1,600 mg once a day (n = 3)) was 0 and the “Treatment-related AEs (number): Muscle spasms, G3” value ([3]; 1,600 mg once a day (n = 3)) was 0. For the same molecule, the “Treatment-related AEs (number): Myalgia, G1–2” value ([3]; 1,600 mg once a day (n = 3)) was 0, the “Treatment-related AEs (number): Myalgia, G3” value ([3]; 1,600 mg once a day (n = 3)) was 0 and the “Treatment-related AEs (number): Nausea, G1–2” value ([3]; 1,600 mg once a day (n = 3)) was 1. The “Treatment-related AEs (number): Nausea, G3” value ([3]; 1,600 mg once a day (n = 3)) was 0, the “Treatment-related AEs (number): Palmar-plantar erythema, G1–2” value ([3]; 1,600 mg once a day (n = 3)) was 0 and the “Treatment-related AEs (number): Palmar-plantar erythema, G3” value ([3]; 1,600 mg once a day (n = 3)) was 0. For the same molecule, the “Treatment-related AEs (number): Vomiting, G1–2” value ([3]; 1,600 mg once a day (n = 3)) was 0, the “Treatment-related AEs (number): Vomiting, G3” value ([3]; 1,600 mg once a day (n = 3)) was 0 and the DLTs observed ([3]; once a day dosing schedule, 50 to 1,600 mg) was “no DLTs”. The Treatment-related deaths ([3]; twice a day cohorts) was “no treatment-related deaths”.
